Biological target: T1, human cathepsin K (Homo sapiens, UniProt P43235)
T1 construct: The proform of cathepsin K was converted to mature cathepsin K by brief exposure to pH 4; made in house; host or cells: baculovirus; Trichoplusia ni High Five cells (virus raised in Sf-9)
T1 sequence (P43235 115-329): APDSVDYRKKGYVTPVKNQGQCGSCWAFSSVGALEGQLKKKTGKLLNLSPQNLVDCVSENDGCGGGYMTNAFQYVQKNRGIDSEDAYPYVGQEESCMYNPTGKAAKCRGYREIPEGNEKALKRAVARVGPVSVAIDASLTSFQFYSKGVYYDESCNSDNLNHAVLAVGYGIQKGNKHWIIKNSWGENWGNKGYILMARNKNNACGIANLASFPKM
Test: Cathepsin K inhibition assay, human recombinant enzyme, fluorogenic substrate Cbz-Phe-Arg-AMC
Format: biochemical
Settings: Table 1, human cathepsin K; read-out: h Cat K IC50
Method: All assays for cathepsin K were carried out with human and rat recombinant enzyme. Assays for cathepsins S ? V were also carried out with human recombinant enzyme. Assays for human cathepsins B, H, and L were carried out with enzyme, purchased from Athens Research and Technology, Inc., prepared from human liver tissue. […] A stock substrate solution of Cbz-Phe-Arg-AMC was prepared at a concentration of 50 mM in dimethyl sulfoxide. This substrate was diluted into the assay for a final substrate concentration of 10 μM in the rat cathepsin K, human cathepsin K, and human cathepsin B assays; a final substrate concentration of 5 μM in the human cathepsin L assay; and a final substrate concentration of 2 μM in the human cathepsin V assay.
All assays contained 10% dimethyl sulfoxide. […] All assays were conducted at 30° C. Product fluorescence (excitation at 360 nm; emission at 440 nm, (except cathepsin H which used excitation at 340 nm; emission at 420 nm)) was monitored with a PerSeptive Biosystems Cytofluor II fluorescence plate reader. Product progress curves were generated over 2.3 h monitoring the formation of 7-amino-4-methylcoumarin product (or β-naphthalamide for cathepsin H).
Human and rat Cathepsin K:
Two liters of Spodoptera frugiperda (Sf-9) cells (ATCC) were grown in Grace's Supplemented medium (Life Technologies) supplemented with 2 g/L glucose, 10% fetal bovine serum (HyClone) and 0.1% pluronic F-68 (Life Technologies). […] The cells continued to grow for 72 h post-infection, before the virus was harvested by centrifugation at 1400×g for 30 min.
One and one-half liters of Trichoplusia ni (T. ni) High Five (™) cells [JRH Biosciences, Woodland, Calif. […] The cells were grown for 24 h at 28° C., 50 RPM, and 50% dissolved oxygen. […] Media were separated from cells at a rate of 1 L/min using the Centritech 100 ™ continuous-flow centrifuge (DuPont) operating at 200×g.
Protein Purification: Media (human and rat) were filtered through a Whatman 3 filter, and then loaded onto a 25 mL. Poros HS II (26 mm×47 mm) cation exchange column equilibrated in 25 mM sodium acetate at pH 5.5 (equilibration buffer). The column was washed until the absorbance reached the baseline value, and then the protein was eluted with a linear gradient from 0-2 M sodium chloride in the equilibration buffer. Column fractions were analyzed by SDS-PAGE, N-terminal sequencing, and mass spectrometry. Fractions containing the proform of cathepsin K were pooled and frozen at −80° C. The proform was concentrated in an Amicon Centriprep 10 and fractionated with a Superdex 75 column (26 mm×600 mm, Pharmacia) equilibrated in 400 mM sodium chloride, 25 mM sodium acetate at pH 5.5.
Cathepsin K Activation: The proform of cathepsin K was converted to mature cathepsin K by brief exposure to pH 4 in the presence of 5 mM L-cysteine. Typically, 5 mM L-cysteine was added to 10 mL of approximately 1 mg/mL procathepsin K. One mL of this solution was diluted ten-fold into 450 mM sodium acetate at pH 4.0 containing 5 mM L-cysteine. This solution was reacted at 23° C. for 2 min before neutralization with 2 mL, 1.8 M sodium acetate at pH 6.0. The neutralized sample was added to the remaining 9 mL of procathepsin K. The mixture was incubated at 4° C. for 2-3 days. The activated cathepsin K was chromatographed on a Poros HS II column as described above.
Potential inhibitors were evaluated using the progress curve method. Assays were carried out in the presence of variable concentrations of test compound. Reactions were initiated by addition of buffered solutions of inhibitor and substrate to enzyme. Data analysis was conducted according to one of two procedures depending on the appearance of the progress curves in the presence of inhibitors. […] Ki values were calculated from IC50 values using equation 2 assuming a competitive model.

Row | SMILES | IC50
1 | CCCC[C@H](NC(=O)O[C@@H]1CN(C(=O)Cc2cc(C)no2)CC1(C)C)C(=O)C(=O)N[C@H](C)c1ccccc1 [Example 35, (3S)-4,4-Dimethyl-1-[(3-methyl-5-isoxazolyl)acetyl]pyrrolidinyl (1S)-1-(oxo{[(1R)-1-phenylethyl]amino}acetyl)pentylcarbamate] | 1 to 10 nM
2 | CCCC[C@H](NC(=O)O[C@@H]1CN(C(=O)Nc2ccc(C(F)(F)F)cc2)CC1(C)C)C(=O)C(=O)N[C@H](C)c1ccccc1 [Example 70, (3S)-4,4-Dimethyl-1-{[4-(trifluoromethyl)anilino]carbonyl}pyrrolidinyl (1S)-1-(oxo {[(1R)-1-phenylethyl]amino}acetyl)pentylcarbamate] | 1 to 10 nM
3 | CCCC[C@H](NC(=O)O[C@@H]1CN(S(=O)(=O)c2ccccc2)CC1(C)C)C(=O)C(=O)N[C@H](C)c1ccccc1 [Example 77, (3S)-4,4-Dimethyl-1-(phenylsulfonyl)pyrrolidinyl (1S)-1-(oxo{[(1R)-1-phenylethyl]amino}acetyl)pentylcarbamate] | 1 to 10 nM
4 | CCCCC(NC(=O)O[C@@H]1CN(Cc2ccccc2)CC1(C)C)C(=O)C(=O)N[C@H](C)c1ccccc1 (stereo partly drawn) [Example 8, (3S)-1-Benzyl-4,4-dimethylpyrrolidinyl 1-(oxo{[(1R)-1-phenylethyl]amino}acetyl)pentylcarbamate] | 10 to 100 nM
5 | CCCC[C@H](NC(=O)O[C@@H]1CN(C(=O)Cc2csc(-c3cnccn3)n2)CC1(C)C)C(=O)C(=O)N[C@H](C)c1ccccc1 [Example 38, (3S)-4,4-Dimethyl-1-{[2-(2-pyrazinyl)-1,3-thiazol-4-yl]acetyl-}pyrrolidinyl (1S)-1-(oxo{[(1R)-1-phenylethyl]amino}acetyl)pentylcarbamate] | 10 to 100 nM
6 | CCCC[C@H](NC(=O)O[C@@H]1CN(C(=O)OCc2noc(-c3cccs3)n2)CC1(C)C)C(=O)C(=O)N[C@H](C)c1ccccc1 [Example 55, [5-(2-Thienyl)-1,2,4-oxadiazol-3-yl]methyl (4S)-3,3-dimethyl-4-[({[(1S)-1-(oxo{[(1R)-1-phenylethyl]amino}acetyl)pentyl]amino}carbonyl)oxy]-1-pyrrolidinecarboxylate] | 10 to 100 nM
7 | CCCC[C@H](NC(=O)O[C@@H]1CN(C(=O)OCCN2CCCC2=O)CC1(C)C)C(=O)C(=O)N[C@H](C)c1ccccc1 [Example 47, 2-(2-Oxo-1-pyrrolidinyl)ethyl (4S)-3,3-dimethyl-4-[({[(1S)-1-(oxo{[(1R)-1-phenylethyl]amino}acetyl)pentyl]amino}carbonyl)oxy]-1-pyrrolidinecarboxylate] | 10 to 100 nM
8 | CCCC[C@H](NC(=O)O[C@@H]1CN(C(=O)Oc2ccc(-c3csnn3)cc2)CC1(C)C)C(=O)C(=O)N[C@H](C)c1ccccc1 [Example 61, 4-(1,2,3-Thiadiazol-4-yl)phenyl (4S)-3,3-dimethyl-4-[({[(1S)-1-(oxo{[(1R)-1-phenylethyl]amino}acetyl)pentyl]amino}carbonyl)oxy]-1-pyrrolidinecarboxylate] | 10 to 100 nM
9 | CCCC[C@H](NC(=O)O[C@@H]1CN(C(=O)c2ccc(-c3ccccc3)cc2)CC1(C)C)C(=O)C(=O)N[C@H](C)c1ccccc1 [Example 20] | 1 to 10 nM
10 | CCCC[C@H](NC(=O)O[C@@H]1CN(C(=O)Cc2ccc(-c3ccccc3)cc2)CC1(C)C)C(=O)C(=O)N[C@H](C)c1ccccc1 [Example 30, (3S)-1-([1,1′-Biphenyl]-4-ylacetyl)-4,4-dimethylpyrrolidinyl (1S)-1-(oxo {[(1R)-1-phenylethyl]amino}acetyl)pentylcarbamate] | 10 to 100 nM

Results, then the compound that gave them:

Row | IC50 | SMILES
11 | 0.1 to 1 nM | CCCC[C@H](NC(=O)O[C@@H]1CN(c2nc3ccccc3s2)CC1(C)C)C(=O)C(=O)Nc1ccn[nH]1 [Example 81, (3S)-1-(1,3-Benzothiazol-2-yl)-4,4-dimethylpyrrolidinyl (1S)-1-[oxo(1H-pyrazol-5-ylamino)acetyl]pentylcarbamate]
12 | 10 to 100 nM | CCCC[C@H](NC(=O)O[C@@H]1CN(S(=O)(=O)Cc2ccccc2)CC1(C)C)C(=O)C(=O)N[C@H](C)c1ccccc1 [Example 78, (3S)-1-(Benzylsulfonyl)-4,4-dimethylpyrrolidinyl (1S)-1-(oxo{[(1R)-1-phenylethyl]amino}acetyl)pentylcarbamate]
13 | 10 to 100 nM | CCCCC(NC(=O)O[C@@H]1CN(C(=O)Cc2cccnc2)CC1(C)C)C(=O)C(=O)N[C@H](C)c1ccccc1 (stereo partly drawn) [Example 33, (3S)-4,4-Dimethyl-1-(3-pyridinylacetyl)pyrrolidinyl 1-(oxo{[(1R)-1-phenylethyl]amino}acetyl)pentylcarbamate]
14 | 10 to 100 nM | CCCC[C@H](NC(=O)O[C@@H]1CN(C(=O)NC(=O)c2ccccc2)CC1(C)C)C(=O)C(=O)N[C@H](C)c1ccccc1 [Example 75, (3S)-1-[(Benzoylamino)carbonyl]-4,4-dimethylpyrrolidinyl (1S)-1-(oxo{[(1R)-1-phenylethyl]amino}acetyl)pentylcarbamate]
15 | 1 to 10 nM | CCCC[C@H](NC(=O)O[C@@H]1CN(C(=O)NCCc2ccccc2)CC1(C)C)C(=O)C(=O)N[C@H](C)c1ccccc1 [Example 65, (3S)-4,4-Dimethyl-1-{[(2-phenylethyl)amino]carbonyl}pyrrolidinyl (1S)-1-(oxo{[(1R)-1-phenylethyl]amino}acetyl)pentylcarbamate]
16 | 10 to 100 nM | CCCC[C@H](NC(=O)OC1C(=O)N(Cc2ccccc2)CC1(C)C)C(=O)C(=O)N[C@H](C)c1ccccc1 (stereo partly drawn) [Example 4, 1-Benzyl-4,4-dimethyl-2-oxo-3-pyrrolidinyl (1S)-1-(oxo{[(1R)-1-phenylethyl]amino}acetyl)pentylcarbamate]
17 | 1 to 10 nM | CCCC[C@H](NC(=O)O[C@@H]1CN(C(=O)c2ccc3c(c2)OCO3)CC1(C)C)C(=O)C(=O)N[C@H](C)c1ccccc1 [Example 16, (3S)-1-(1,3-Benzodioxol-5-ylcarbonyl)-4,4-dimethylpyrrolidinyl (1S)-1-(oxo{[(1R)-1-phenylethyl]amino}acetyl)pentylcarbamate]
18 | 10 to 100 nM | CCCC[C@H](NC(=O)O[C@@H]1CN(S(=O)(=O)c2ccc3c(c2)OCCO3)CC1(C)C)C(=O)C(=O)N[C@H](C)c1ccccc1 [Example 80, (3S)-1-(2,3-Dihydro-1,4-benzodioxin-6-ylsulfonyl)-4,4-dimethylpyrrolidinyl (1S)-1-(oxo{[(1R)-1-phenylethyl]amino}acetyl)pentylcarbamate]
19 | 1 to 10 nM | CCCC[C@H](NC(=O)O[C@@H]1CN(C(=O)OCCc2scnc2C)CC1(C)C)C(=O)C(=O)N[C@H](C)c1ccccc1 [Example 51, 2-(4-Methyl-1,3-thiazol-5-yl)ethyl (4S)-3,3-dimethyl-4-[({[(1S)-1-(oxo {[(1R)-1-phenylethyl]amino}acetyl)pentyl]amino}carbonyl)oxy]-1-pyrrolidinecarboxylate]
20 | 100 to 1000 nM | CCCC[C@H](NC(=O)O[C@@H]1CN(C(=O)NS(=O)(=O)c2ccc(C)cc2)CC1(C)C)C(=O)C(=O)N[C@H](C)c1ccccc1 [Example 76, (3S)-4,4-Dimethyl-1-({[(4-methylphenyl)sulfonyl]amino}carbonyl)pyrrolidinyl (1S)-1-(oxo{[(1R)-1-phenylethyl]amino}acetyl)pentylcarbamate]
